Reference: patent US4304781A, “Treatment of ulcers and hypertension” (John Wyeth & Brother Limited, priority 1978, dated 1981)

Legend:
Type in all cases: in vivo
[1] = tested on: Female rats rendered hypertensive; experiment: Antihypertensive activity, Procedure B: deoxycorticosterone acetate hypertensive rats (unilateral nephrectomy); details: 50 mg/kg orally
Protocol: Female rats are rendered hypertensive by unilateral nephrectomy and the s.c. implantation of a pellet containing 30 mg of deoxycorticosterone acetate. The drinking water is replaced by normal saline ad lib for the first four weeks following preparation. Blood pressures stabilise at a hypertensive level after 6 weeks. Systolic pressure is measured indirectly before dosing with a test compound using an E and M pneumatic pulse transducer and a Devices MX2 recorder. Groups of 4 rats are dosed orally with suspensions or solutions of the test compound in 0.5% hydroxypropyl-methyl-cellulose 0.9% saline vehicle. Blood pressures are recorded again at 2, 6 and 24 hours and the results, expressed as a percentage of the pre-dose values compared with those of a similar group of rats receiving vehicle alone.

stress-induced erosion = experiment: Stress-induced erosion test (Senay & Levine), anti-ulcer activity
Protocol: (§1) Anti-ulcer activity was determined by the stress-induced erosion test of Senay & Levine, Proc. Soc. Exp. Biol. Med., 124, 1221-1223 (1967) and anti-secretory activity by the test of H. Shay, D. Sun and H. Greenstin, Gastroenterology, 1954, 26, 903-913 as exemplified by Beattie et al J. Med. Chem., 20, 714 (1977). […] However, some compounds show activity in tests for anti-hypertensive activity.

hypersecretion = experiment: Anti-secretory activity test (Shay et al); design: key to Anti-secretory, % change in Vol.: NS: Not Significant
Protocol: as §1

Row | SMILES | Antihypertensive activity (Procedure B) [1] | inhibition in vivo at 10 mg/kg (stress-induced erosion; 10 mg/kg) | inhibition in vivo at 30 mg/kg (stress-induced erosion; 30 mg/kg) | inhibition in vivo at 100 mg/kg (stress-induced erosion) | Anti-secretory, % change in Vol. (hypersecretion; 30 mg/kg) | change in vivo at 10 mg/kg (hypersecretion; 10 mg/kg, read-out: Anti-secretory, % change in Vol.) | change in vivo at 30 mg/kg (hypersecretion; 30 mg/kg, read-out: Anti-secretory, % change in Vol.)
1 | C[n+]1ccccc1SCC1CCCCC1 [Example 12, 2-(Cyclohexylmethylthio)-1-methylpyridinium bromide] | inactive | 64% | 67% | 87% | NS |  | 
2 | C[n+]1ccccc1SCc1cccc(Cl)c1 [Example 11, 1-Methyl-2-(3-chlorobenzylthio(pyridinium chloride] | inactive |  |  | 62% |  | -42% | -70%
